According to patent US10875875B2, “Propionic acid derivatives and methods of use thereof” (Aviara Pharmaceuticals, Inc., priority 2017, dated 2020):

Molecular target: α4β1 (Homo sapiens, UniProt P05556+P13612)
Assay: α4β1 integrin inhibition, IC50
Assay type: binding
Settings: read-out: α4β1 IC50

Sequence of α4β1 (P13612 34-1032): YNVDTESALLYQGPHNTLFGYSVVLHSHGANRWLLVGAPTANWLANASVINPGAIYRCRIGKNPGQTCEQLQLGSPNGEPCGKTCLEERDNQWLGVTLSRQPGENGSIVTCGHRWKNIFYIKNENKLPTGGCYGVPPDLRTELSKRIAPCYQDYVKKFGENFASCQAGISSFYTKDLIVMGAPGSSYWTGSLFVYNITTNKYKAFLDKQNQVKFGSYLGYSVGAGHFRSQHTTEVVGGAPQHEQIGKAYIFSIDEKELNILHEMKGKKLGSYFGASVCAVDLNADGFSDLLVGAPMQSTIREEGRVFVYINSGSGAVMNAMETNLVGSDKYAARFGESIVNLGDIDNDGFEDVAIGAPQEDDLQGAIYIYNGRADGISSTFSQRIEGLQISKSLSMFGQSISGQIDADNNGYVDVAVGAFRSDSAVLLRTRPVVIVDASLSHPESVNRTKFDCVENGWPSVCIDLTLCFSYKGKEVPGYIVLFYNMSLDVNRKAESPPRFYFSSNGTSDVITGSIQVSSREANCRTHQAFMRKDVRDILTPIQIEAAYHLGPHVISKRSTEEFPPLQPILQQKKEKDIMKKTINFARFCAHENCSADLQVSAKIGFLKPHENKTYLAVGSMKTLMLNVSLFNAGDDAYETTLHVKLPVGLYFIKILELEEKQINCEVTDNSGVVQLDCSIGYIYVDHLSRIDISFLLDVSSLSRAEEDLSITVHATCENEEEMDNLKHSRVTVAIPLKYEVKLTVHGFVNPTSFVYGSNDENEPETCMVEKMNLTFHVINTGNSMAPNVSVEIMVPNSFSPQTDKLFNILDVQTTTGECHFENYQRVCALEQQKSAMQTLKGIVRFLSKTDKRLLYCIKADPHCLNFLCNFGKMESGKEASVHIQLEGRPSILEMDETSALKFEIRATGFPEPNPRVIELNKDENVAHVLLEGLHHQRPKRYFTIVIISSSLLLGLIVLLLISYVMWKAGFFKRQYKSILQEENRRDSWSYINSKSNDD
Sequence of α4β1 (P05556 21-798): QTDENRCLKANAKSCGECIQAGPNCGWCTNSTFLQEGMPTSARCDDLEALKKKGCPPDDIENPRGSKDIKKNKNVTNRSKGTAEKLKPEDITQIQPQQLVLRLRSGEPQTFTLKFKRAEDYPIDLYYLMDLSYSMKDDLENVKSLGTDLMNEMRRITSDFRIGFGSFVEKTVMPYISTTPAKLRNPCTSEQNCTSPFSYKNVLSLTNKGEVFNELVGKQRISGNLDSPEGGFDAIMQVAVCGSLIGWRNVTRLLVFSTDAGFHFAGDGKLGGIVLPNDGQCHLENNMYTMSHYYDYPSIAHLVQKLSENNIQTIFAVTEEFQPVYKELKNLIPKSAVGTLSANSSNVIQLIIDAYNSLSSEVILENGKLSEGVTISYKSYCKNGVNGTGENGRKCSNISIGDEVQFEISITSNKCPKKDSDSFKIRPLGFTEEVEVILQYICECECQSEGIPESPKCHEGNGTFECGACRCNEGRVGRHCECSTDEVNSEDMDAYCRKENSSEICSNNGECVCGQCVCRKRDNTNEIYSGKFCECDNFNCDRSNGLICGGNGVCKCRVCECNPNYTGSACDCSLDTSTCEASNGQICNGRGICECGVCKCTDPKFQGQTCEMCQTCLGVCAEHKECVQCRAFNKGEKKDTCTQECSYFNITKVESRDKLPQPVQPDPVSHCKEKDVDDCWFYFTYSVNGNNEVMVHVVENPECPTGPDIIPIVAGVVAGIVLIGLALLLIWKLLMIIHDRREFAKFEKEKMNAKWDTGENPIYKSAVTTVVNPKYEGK

SMILES: Cc1cn(C)c(=O)c(NC(=O)N[C@@H](CC(=O)O)c2cccc(-c3ccccc3C(F)(F)F)c2)c1O [1-474, sodium (S)-3-(3-(1,5-dimethyl-4-oxido-2-oxo-1,2-dihydropyridin-3-yl)ureido)-3-(2′-(trifluoromethyl)biphenyl-3-yl)propanoate]
- IC50: < 200 nM

SMILES: COc1cc([C@H](CC(=O)O)NC(=O)Nc2c(O)c(C)cn(C)c2=O)cc(-c2ccccc2)c1OC [1-475, sodium (S)-3-(5,6-dimethoxybiphenyl-3-yl)-3-(3-(1,5-dimethyl-4-oxido-2-oxo-1,2-dihydropyridin-3-yl)ureido)propanoate]
- IC50: < 200 nM

SMILES: COc1ccc(-c2cccc([C@H](CC(=O)O)NC(=O)Nc3c(O)c(C)cn(C)c3=O)c2)cn1 [1-476, sodium (S)-3-(3-(1,5-dimethyl-4-oxido-2-oxo-1,2-dihydropyridin-3-yl)ureido)-3-(3-(6-methoxypyridin-3-yl)phenyl)propanoate]
- IC50: < 20 nM

SMILES: COc1ccc(OC)c(-c2cccc([C@H](CC(=O)O)NC(=O)Nc3c(O)c(C)cn(C)c3=O)c2)c1 [1-477, sodium (S)-3-(2′,5′-dimethoxybiphenyl-3-yl)-3-(3-(1,5-dimethyl-4-oxido-2-oxo-1,2-dihydropyridin-3-yl)ureido)propanoate]
- IC50: < 200 nM

SMILES: Cc1cn(C)c(=O)c(NC(=O)NC(CC(=O)O)c2cccc(-c3cncnc3)c2)c1O (stereo not drawn) [1-478, sodium 3-(3-(1,5-dimethyl-4-oxido-2-oxo-1,2-dihydropyridin-3-yl)ureido)-3-(3-(pyrimidin-5-yl)phenyl)propanoate]
- IC50: < 200 nM

SMILES: COc1cccc(OC)c1-c1cccc([C@H](CC(=O)O)NC(=O)Nc2c(O)c(C)cn(C)c2=O)c1 [1-479, sodium (S)-3-(2′,6′-dimethoxybiphenyl-3-yl)-3-(3-(1,5-dimethyl-4-oxido-2-oxo-1,2-dihydropyridin-3-yl)ureido)propanoate]
- IC50: < 200 nM

SMILES: CCn1cc(C)c(O)c(NC(=O)NC(CC(=O)O)c2cccc(-c3ccc(Cl)c(Cl)c3)c2)c1=O (stereo not drawn) [1-480, sodium 3-(3′,4′-dichlorobiphenyl-3-yl)-3-(3-(1-ethyl-5-methyl-4-oxido-2-oxo-1,2-dihydropyridin-3-yl)ureido)propanoate]
- IC50: < 200 nM

SMILES: Cc1cn(C)c(=O)c(NC(=O)NC(CC(=O)O)c2cccc(-c3ccc(Cl)c(Cl)c3)c2)c1O (stereo not drawn) [1-481, sodium 3-(3′,4′-dichlorobiphenyl-3-yl)-3-(3-(1,5-dimethyl-4-oxido-2-oxo-1,2-dihydropyridin-3-yl)ureido)propanoate]
- IC50: < 200 nM

SMILES: Cc1cn(C)c(=O)c(NC(=O)N[C@@H](CC(=O)O)c2ccc(-c3ccccc3)o2)c1O [1-482, sodium (S)-3-(3-(1,5-dimethyl-4-oxido-2-oxo-1,2-dihydropyridin-3-yl)ureido)-3-(5-phenylfuran-2-yl)propanoate]
- IC50: < 200 nM

SMILES: Cc1cn(C)c(=O)c(NC(=O)N[C@@H](CC(=O)O)c2cccc(-n3c(C)ccc3C)c2)c1O [1-483, sodium (S)-3-(3-(2,5-dimethyl-1H-pyrrol-1-yl)phenyl)-3-(3-(1,5-dimethyl-4-oxido-2-oxo-1,2-dihydropyridin-3-yl)ureido)propanoate]
- IC50: < 20 nM

SMILES: Cc1cn(C)c(=O)c(NC(=O)NC(CC(=O)O)c2cccc(-c3ccc(F)c(Cl)c3)c2)c1O (stereo not drawn) [1-484, sodium 3-(3′-chloro-4′-fluorobiphenyl-3-yl)-3-(3-(1,5-dimethyl-4-oxido-2-oxo-1,2-dihydropyridin-3-yl)ureido)propanoate]
- IC50: < 200 nM

SMILES: Cc1cn(C)c(=O)c(NC(=O)NC(CC(=O)O)c2cccc(-c3cccc(Cl)c3Cl)c2)c1O (stereo not drawn) [1-485, sodium 3-(2′,3′-dichlorobiphenyl-3-yl)-3-(3-(1,5-dimethyl-4-oxido-2-oxo-1,2-dihydropyridin-3-yl)ureido)propanoate]
- IC50: < 200 nM

SMILES: Cc1cn(C)c(=O)c(NC(=O)NC(CC(=O)O)c2cccc(-c3cc(Cl)cc(Cl)c3)c2)c1O (stereo not drawn) [1-486, sodium 3-(3′,5′-dichlorobiphenyl-3-yl)-3-(3-(1,5-dimethyl-4-oxido-2-oxo-1,2-dihydropyridin-3-yl)ureido)propanoate]
- IC50: < 200 nM

SMILES: COc1cccc(-c2cccc([C@H](CC(=O)O)NC(=O)Nc3c(O)c(C)cn(C)c3=O)c2)c1C [1-489, sodium (S)-3-(3-(1,5-dimethyl-4-oxido-2-oxo-1,2-dihydropyridin-3-yl)ureido)-3-(3′-methoxy-2′-methylbiphenyl-3-yl)propanoate]
- IC50: < 200 nM

SMILES: COc1ccc(C)c(-c2cccc([C@H](CC(=O)O)NC(=O)Nc3c(O)c(C)cn(C)c3=O)c2)c1 [1-490, sodium (S)-3-(3-(1,5-dimethyl-4-oxido-2-oxo-1,2-dihydropyridin-3-yl)ureido)-3-(5′-methoxy-2′-methylbiphenyl-3-yl)propanoate]
- IC50: < 200 nM

SMILES: Cc1cn(C)c(=O)c(NC(=O)NC(CC(=O)O)c2ccc(OCC(F)(F)F)c(-c3ccccc3)c2)c1O (stereo not drawn) [1-491, sodium 3-(3-(1,5-dimethyl-4-oxido-2-oxo-1,2-dihydropyridin-3-yl)ureido)-3-(6-(2,2,2-trifluoroethoxy)biphenyl-3-yl)propanoate]
- IC50: < 200 nM

SMILES: CCc1ccccc1-c1cccc([C@H](CC(=O)O)NC(=O)Nc2c(O)c(C)cn(C)c2=O)c1 [1-492, sodium (S)-3-(3-(1,5-dimethyl-4-oxido-2-oxo-1,2-dihydropyridin-3-yl)ureido)-3-(2′-ethylbiphenyl-3-yl)propanoate]
- IC50: < 20 nM

SMILES: Cc1cn(C)c(=O)c(NC(=O)N[C@@H](CC(=O)O)c2cc(-c3ccccc3)ccc2F)c1O [1-493, sodium (S)-3-(3-(1,5-dimethyl-4-oxido-2-oxo-1,2-dihydropyridin-3-yl)ureido)-3-(4-fluorobiphenyl-3-yl)propanoate]
- IC50: < 200 nM

SMILES: O=C(O)C[C@H](NC(=O)Nc1c(O)cc[nH]c1=O)c1cccc(-c2ccc(F)cc2F)c1 [1-494, sodium (S)-3-(2′,4′-difluorobiphenyl-3-yl)-3-(3-(4-oxido-2-oxo-1,2-dihydropyridin-3-yl)ureido)propanoate]
- IC50: < 20 nM

SMILES: Cc1ccc(-c2cccc([C@H](CC(=O)O)NC(=O)Nc3c(O)c(C)cn(C)c3=O)c2)cc1C [1-495, sodium (S)-3-(3-(1,5-dimethyl-4-oxido-2-oxo-1,2-dihydropyridin-3-yl)ureido)-3-(3′,4′-dimethylbiphenyl-3-yl)propanoate]
- IC50: < 200 nM

SMILES: Cc1cn(C)c(=O)c(NC(=O)N[C@@H](CC(=O)O)c2cccc(-c3cccc(F)c3F)c2)c1O [1-496, sodium (S)-3-(2′,3′-difluorobiphenyl-3-yl)-3-(3-(1,5-dimethyl-4-oxido-2-oxo-1,2-dihydropyridin-3-yl)ureido)propanoate]
- IC50: < 200 nM

SMILES: Cc1cc(-c2cccc([C@H](CC(=O)O)NC(=O)Nc3c(O)c(C)cn(C)c3=O)c2)ccc1F [1-497, sodium (S)-3-(3-(1,5-dimethyl-4-oxido-2-oxo-1,2-dihydropyridin-3-yl)ureido)-3-(4′-fluoro-3′-methylbiphenyl-3-yl)propanoate]
- IC50: < 200 nM

SMILES: Cc1cn(C)c(=O)c(NC(=O)N[C@@H](CC(=O)O)c2cccn2-c2ccccc2)c1O [1-498, sodium (S)-3-(3-(1,5-dimethyl-4-oxido-2-oxo-1,2-dihydropyridin-3-yl)ureido)-3-(1-phenyl-1H-pyrrol-2-yl)propanoate]
- IC50: > 200 nM

SMILES: Cc1cn(C)c(=O)c(NC(=O)N[C@@H](CC(=O)O)c2cccc(-c3cccc(Cl)c3)c2)c1O [1-499, sodium (S)-3-(3′-chlorobiphenyl-3-yl)-3-(3-(1,5-dimethyl-4-oxido-2-oxo-1,2-dihydropyridin-3-yl)ureido)propanoate]
- IC50: < 20 nM

SMILES: Cc1cn(C)c(=O)c(NC(=O)N[C@@H](CC(=O)O)c2cccc(-c3ccccc3)c2C)c1O [1-500, sodium (S)-3-(3-(1,5-dimethyl-4-oxido-2-oxo-1,2-dihydropyridin-3-yl)ureido)-3-(2-methylbiphenyl-3-yl)propanoate]
- IC50: > 200 nM

SMILES: COc1cccc(-c2cccc([C@H](CC(=O)O)NC(=O)Nc3c(O)ccn(C)c3=O)c2)c1 [1-501, sodium (S)-3-(3′-methoxybiphenyl-3-yl)-3-(3-(1-methyl-4-oxido-2-oxo-1,2-dihydropyridin-3-yl)ureido)propanoate]
- IC50: < 20 nM

SMILES: Cc1cn(C)c(=O)c(NC(=O)NC(CC(=O)O)c2cccc(-c3cc(Cl)c(F)cc3F)c2)c1O (stereo not drawn) [1-503, sodium 3-(5′-chloro-2′,4′-difluorobiphenyl-3-yl)-3-(3-(1,5-dimethyl-4-oxido-2-oxo-1,2-dihydropyridin-3-yl)ureido)propanoate]
- IC50: < 200 nM

SMILES: COc1cccc(-c2cccc([C@H](CC(=O)O)NC(=O)Nc3c(O)c(C)cn(C)c3=O)c2)c1OC [1-504, sodium (S)-3-(2′,3′-dimethoxybiphenyl-3-yl)-3-(3-(1,5-dimethyl-4-oxido-2-oxo-1,2-dihydropyridin-3-yl)ureido)propanoate]
- IC50: < 20 nM

SMILES: Cn1ccc(O)c(NC(=O)N[C@@H](CC(=O)O)c2cccc(-c3ccccc3)c2)c1=O [1-505, sodium (S)-3-(biphenyl-3-yl)-3-(3-(1-methyl-4-oxido-2-oxo-1,2-dihydropyridin-3-yl)ureido)propanoate]
- IC50: < 20 nM

SMILES: Cn1ccc(O)c(NC(=O)N[C@@H](CC(=O)O)c2cccc(-c3cccc(Cl)c3)c2)c1=O [1-506, sodium (S)-3-(3′-chlorobiphenyl-3-yl)-3-(3-(1-methyl-4-oxido-2-oxo-1,2-dihydropyridin-3-yl)ureido)propanoate]
- IC50: < 20 nM

SMILES: Cn1ccc(O)c(NC(=O)N[C@@H](CC(=O)O)c2cccc(-n3cccc3)c2)c1=O [1-507, sodium (S)-3-(3-(1H-pyrrol-1-yl)phenyl)-3-(3-(1-methyl-4-oxido-2-oxo-1,2-dihydropyridin-3-yl)ureido)propanoate]
- IC50: < 20 nM

SMILES: COc1ccc(-c2cccc([C@H](CC(=O)O)NC(=O)Nc3c(O)ccn(C)c3=O)c2)cn1 [1-508, sodium (S)-3-(3-(6-methoxypyridin-3-yl)phenyl)-3-(3-(1-methyl-4-oxido-2-oxo-1,2-dihydropyridin-3-yl)ureido)propanoate]
- IC50: < 20 nM

SMILES: COc1cccc(-c2cccc([C@H](CC(=O)O)NC(=O)Nc3c(O)ccn(C)c3=O)c2)c1F [1-509, sodium (S)-3-(2′-fluoro-3′-methoxybiphenyl-3-yl)-3-(3-(1-methyl-4-oxido-2-oxo-1,2-dihydropyridin-3-yl)ureido)propanoate]
- IC50: < 20 nM
